# Test results taken from the NIST ThermoML archive (doi:10.1021/acs.jced.5b00710).
# ± gives the expanded uncertainty stated by the source.
# Assay: an = ratio of the nth substance listed
# Settings: 298.15 K; 101 kPa; Liquid; Cone and plate viscometry; a1 = 1
smiles,measurement,value
CCCCCCCCCCCCCC[P+](CCCCCC)(CCCCCC)CCCCCC.O=S(=O)([N-]S(=O)(=O)C(F)(F)F)C(F)(F)F + NCCO,viscosity,90 ± 2 mPa·s
